A short description of series [1]: Solubility in water of dye quenchers. Conditions: for solubility: water, Solubility in Water.
Series [2] addresses T1, GCGR (Homo sapiens, UniProt P47871).
T1 construct: expressed in transfected cells
Briefly: CNG channel voltage dye assay with quencher dyes, cell line ASC0089 (GCGR). The class given is cell-based. Conditions: for Cell response to glucagon in the presence of the quencher dye: ASC0089, HLB30602 5 μM, 1 h at room temperature, FIG. 19; for Effect of quencher on glucagon potency: compared with other quenchers and MDC dye kit, FIG. 21, 22.

A short description of series [3]: CNG channel voltage dye assay with quencher dyes, cell line ASC0089 (Cyclase).
Series [4] relates to stably transformed cells expressing a CNG channel gene. Briefly: CNG channel endpoint assay, 384 well, FLEXstation. In kind it is cell-based. Conditions: 30 μM, 90 minutes after stimulation. The procedure:
The CNG channel assay can also be used to perform endpoint assays. Decay of fluorescence responses results from desensitization of CNG channel was effectively removed by chelating extracellular calcium by EGTA and supplementing inhibitors of phosphodiesterase. Stably transformed cells expressing a CNG channel gene were seeded into 384 well plates and grown as described in previous examples. Forskolin was dissolved at a final concentration of 30 μM in Compound Buffer containing EGTA. Fluorescence intensity values of cells incubated with forskolin or with Compound Buffer only were read using FLEXstation (Molecular Devices) at different time points after forskolin stimulation.

Series [5] addresses MC1R (Homo sapiens, UniProt Q01726). Conditions: cell line ASC0179.
The target of series [6] is T2, A2B (Homo sapiens, UniProt P29275).
T2 construct: endogenous in cells
T2 sequence (P29275 1-332): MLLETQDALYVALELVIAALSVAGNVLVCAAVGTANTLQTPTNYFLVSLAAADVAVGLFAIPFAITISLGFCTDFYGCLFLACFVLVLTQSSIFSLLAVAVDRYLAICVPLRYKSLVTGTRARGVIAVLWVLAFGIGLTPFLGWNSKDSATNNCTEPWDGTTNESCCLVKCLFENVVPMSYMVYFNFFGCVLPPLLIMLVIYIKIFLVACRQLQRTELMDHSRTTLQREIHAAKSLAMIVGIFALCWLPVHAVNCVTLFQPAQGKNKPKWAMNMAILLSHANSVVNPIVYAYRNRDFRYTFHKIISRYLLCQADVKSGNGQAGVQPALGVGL
Briefly: CNG channel voltage dye assay with quencher dyes, cell line ASC0097 (A2B). In kind it is cell-based. Conditions: FIG. 20.

In series [7] the test system is 20 ligand-receptor pairs. Conditions: quenchers for fluorescent voltage dyes.
Series [8] relates to tyramine receptor. Briefly: Tyramine receptor activation, CNG channel assay with membrane potential dye. The class given is cell-based. Conditions: HEK293 transient, FIG. 16. How it is done: In this example, activation of the tyramine receptor was examined using the CNG channel assay and compared with calcium fluorescence assays using Gα16 and Gαqs. Similar amounts of plasmids comprising CNG channel, Gα16 or Gαqs were used for transient expression in HEK293 cells also transiently expressing tyramine receptor. Calcium assays were performed following the protocol provided by Molecular Devices. For each concentration of tyramine, three recordings were made to obtain an average response in cells expressing Gα16, Gαqs and CNG channel respectively.

A short description of series [9]: CNG channel voltage dye assay with quencher dyes, cell line ASC0097 (EP2). Conditions: NY & H30602.
Series [10] has as its target T3, DP (Homo sapiens, UniProt Q13258).
T3 construct: expressed in transfected cells; host or cells: cell line ASC0093 (CNG sensor line)
T3 sequence (Q13258 1-359): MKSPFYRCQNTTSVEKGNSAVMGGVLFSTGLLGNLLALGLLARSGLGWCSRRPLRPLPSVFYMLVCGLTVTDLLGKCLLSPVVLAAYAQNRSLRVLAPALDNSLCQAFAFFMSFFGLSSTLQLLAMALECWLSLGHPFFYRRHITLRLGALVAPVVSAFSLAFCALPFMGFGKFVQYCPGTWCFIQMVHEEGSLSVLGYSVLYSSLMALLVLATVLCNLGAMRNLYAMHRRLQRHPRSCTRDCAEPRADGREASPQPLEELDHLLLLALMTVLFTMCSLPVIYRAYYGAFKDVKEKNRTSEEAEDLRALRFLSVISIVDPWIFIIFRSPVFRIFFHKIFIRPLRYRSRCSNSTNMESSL
Briefly: CNG channel voltage dye assay with quencher dyes, cell line ASC0093 (DP). The class given is cell-based.

In general, solubility refers to the dissolved amount per volume that the medium holds. A word on the pEC50: it is the EC50 on a negative log10 scale, so that one unit is a factor of ten. Low readings indicate a large EC50, high ones a small EC50.

pEC50: −log10 of the molar value. In brackets after ≈: the same amount, converted by molar mass. Where two headings read alike, the source gives them in different places.

T1 sequence (P47871 26-477, species assumed): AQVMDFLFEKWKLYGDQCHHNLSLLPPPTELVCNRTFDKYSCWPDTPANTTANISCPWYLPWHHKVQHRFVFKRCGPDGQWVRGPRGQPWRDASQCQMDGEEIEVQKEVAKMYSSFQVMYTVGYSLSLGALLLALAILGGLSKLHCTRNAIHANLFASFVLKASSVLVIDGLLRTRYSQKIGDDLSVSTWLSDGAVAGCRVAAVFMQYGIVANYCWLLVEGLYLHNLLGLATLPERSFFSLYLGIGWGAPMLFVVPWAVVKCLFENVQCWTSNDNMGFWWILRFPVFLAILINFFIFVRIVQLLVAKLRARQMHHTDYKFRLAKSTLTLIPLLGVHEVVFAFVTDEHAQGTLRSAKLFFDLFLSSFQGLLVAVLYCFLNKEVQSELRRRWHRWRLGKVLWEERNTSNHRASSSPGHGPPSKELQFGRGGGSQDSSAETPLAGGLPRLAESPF
MC1R, sequence (Q01726 whole entry, species assumed): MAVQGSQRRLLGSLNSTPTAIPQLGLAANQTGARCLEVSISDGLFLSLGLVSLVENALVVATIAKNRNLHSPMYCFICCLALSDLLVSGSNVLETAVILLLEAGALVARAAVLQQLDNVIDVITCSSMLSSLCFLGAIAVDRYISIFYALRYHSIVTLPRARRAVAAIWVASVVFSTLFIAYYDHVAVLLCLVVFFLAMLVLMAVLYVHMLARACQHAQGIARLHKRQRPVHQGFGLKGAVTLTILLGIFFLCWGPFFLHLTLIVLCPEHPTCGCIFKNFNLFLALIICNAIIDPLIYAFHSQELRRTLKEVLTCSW

In the case of `O=S(=O)([O-])c1cccc(N=Nc2ccc(N=Nc3ccc(Nc4ccccc4)c4c(S(=O)(=O)[O-])cccc34)c3ccccc23)c1.[Na+].[Na+]` [Acid Blue 113], the “Solubility in Water” value in series [1] was determined as 40 mg/mL. For `O=S1(=O)OC(c2cc(Cl)c(O)c(Br)c2)(c2cc(Cl)c(O)c(Br)c2)c2ccccc21` [Bromochlorophenol Blue], in series [1], the “Solubility in Water” value was 20 mg/mL (≈ 34.4 mM).

Regarding DIAZINE BLACK, the “Cell response to glucagon in the presence of the quencher dye” value in [2] was “abolished”. As for `O=c1c(Br)cc2c(-c3ccccc3S(=O)(=O)O)c3cc(Br)c(O)c(O)c3oc-2c1O` [Bromopyrogallol Red], the concentration in solution in [1] (solubility) was 5 mg/mL (≈ 8.96 mM). Consider `CCN(CC)c1ccc2nc3ccc(N)cc3[n+](-c3ccccc3)c2c1.[Cl-]` [Methylene Violet 3Rax], for which the “Solubility in Water” value in series [1] was found to be 10 mg/mL.

Regarding `C=C[C@@]1(C)CC(=O)[C@]2(O)[C@@]3(C)[C@@H](O)CCC(C)(C)[C@@H]3[C@H](O)[C@H](OC(C)=O)[C@@]2(C)O1` [forskolin], in series [3] (MDC dye), the pEC50 is 6.64 and the “maximal response Fmax/Fb” value was determined as 5.3. Besides, in [3] (NY & H30602), the pEC50 was 6.80 and the “maximal response Fmax/Fb” value came out at 5.1. Also, the “increase of fluorescence intensity versus buffer control” value in [4] was 2.8 fold. In addition, the fluorescence intensity in [4] (n=192) is 5.3±0.5×10^5 RFU. For the molecule α-MSH, the “maximal response Fmax/Fb” value in series [5] (MDC dye) amounted to 5; in series [5] (TB & H30602) it was 5.1.

Regarding `O=S1(=O)OC(c2ccc(O)c(Cl)c2)(c2ccc(O)c(Cl)c2)c2ccccc21` [Chlorophenol Red], the “Solubility in Water” value in series [1] was determined as 30 mg/mL (≈ 70.9 mM).

`Cc1cc(-c2ccc(/N=N/c3c(S(=O)(=O)O)cc4cc(S(=O)(=O)O)cc(N)c4c3O)c(C)c2)ccc1/N=N/c1c(S(=O)(=O)O)cc2cc(S(=O)(=O)O)cc(N)c2c1O` [Trypan Blue (Fluka), Trypan Blue]: in series [6], the “Suitability of quencher for assay of adenosine receptor A2B responses to NECA” value (shortened to “Suitability of quencher”) is on record as “suitable”. In addition, in series [2] (FIG. 21), the “Effect of quencher on maximal responses to glucagon” value was “did not inhibit maximal responses” and the “Interference of quencher with response to glucagon stimulation” value (“Interference of quencher with response” for short) is on record as “interfered”. In addition, the “Effect of quencher on glucagon potency” value in series [2] (listed as Trypan blue) is listed as “reduced glucagon potency by about one order”. In addition, the “Effect of quencher on glucagon potency” value in series [2] (listed as trypan blue) is listed as “significantly reduced glucagon potency”. For the same molecule, in series [1], the solubility was roughly 10 mg/mL (≈ 11.5 mM). Turning to `Nc1c(N=Nc2ccc([N+](=O)[O-])cc2)c(S(=O)(=O)[O-])cc2cc(S(=O)(=O)[O-])cc(O)c12.[Na+].[Na+]` [Nitro Red], in [7], the “effect of quencher on responses of peptides and other small organic molecules” value is recorded as “little effect”. Moreover, in series [1], the “Solubility in Water” value was 40 mg/mL. Turning to `O.O=C1c2ccccc2C(=O)c2c1cc(S(=O)(=O)[O-])c(O)c2O.[Na+]` [Alizarin Red S monohydrate], the “Solubility in Water” value in series [1] is 20 mg/mL.

Take `O=S1(=O)OC(c2cc(Br)c(O)c(Br)c2)(c2cc(Br)c(O)c(Br)c2)c2ccccc21` [Bromophenol Blue]: in series [6], the “Suitability of quencher” value is on record as “reduced NECA response without affecting NECA potency”. Also, the “Interference of quencher with response” value in series [2] (FIG. 21) is reported as “interfered”. Moreover, the “Solubility in Water” value in [1] came to 30 mg/mL (≈ 44.8 mM). In the case of Sulfonazo II, the “Solubility in Water” value in [1] was 40 mg/mL. With `O=S(=O)([O-])c1cc(O)c2c(/N=N/c3ccc(Nc4ccccc4)c4c(S(=O)(=O)[O-])cccc34)cc(S(=O)(=O)[O-])cc2c1.[Na+].[Na+].[Na+]` [Acid Blue 92], the “Solubility in Water” value in series [1] came to 40 mg/mL. On the same count and under the same terms, the figure for Direct Violet 51 is 20 mg/mL. In the case of `NCCc1ccc(O)cc1` [tyramine], the tyramine receptor activation entry in series [8] was “detectable”. `CCCCC[C@H](O)/C=C/[C@H]1[C@H](O)CC(=O)[C@@H]1CCCCCCC(=O)O` [PGE1, Prostaglandin E1]: in series [9], the pEC50 was 7.40 and the “maximal response Fmax/Fb” value is 5.3. Regarding `Cc1cc(-c2ccc(/N=N/c3c(S(=O)(=O)O)cc4cc(S(=O)(=O)O)cc(N)c4c3O)c(C)c2)ccc1/N=N/c1c(S(=O)(=O)O)cc2cc(S(=O)(=O)O)cc(N)c2c1O` [HLB30702 (Trypan Blue), Trypan Blue], the “Suitability of quencher” value in series [6] is “suitable”. The “Interference of quencher with response” value in [2] (FIG. 21) is reported as “interfered”. Also, in series [1], the “Solubility in Water” value is greater than 20 mg/mL. Take `O=S(=O)([O-])c1cc(O)c(N=Nc2c(O)ccc3ccccc23)c2ccccc12.[Na+]` [Palatine Chrome Black 6BN (Calcon)]: the “Solubility in Water” value in [1] is 30 mg/mL. Consider `CCN(CC)c1ccc(C(=C2C=CC(=[N+](CC)Cc3cccc(S(=O)(=O)[O-])c3)C=C2)c2ccc(N(CC)Cc3cccc(S(=O)(=O)[O-])c3)cc2)cc1.[Na+]` [Acid Violet 17], for which the “Cell response to glucagon in the presence of the quencher dye” value in series [2] is on record as “abolished”. Further, the “Solubility in Water” value in series [1] was 30 mg/mL. For `CC(=O)Nc1ccc(S(=O)(=O)[O-])c2cc(S(=O)(=O)[O-])c(N=Nc3ccc(N=Nc4ccc(S(=O)(=O)[O-])cc4)c4ccc(S(=O)(=O)[O-])cc34)c(O)c12.[Na+].[Na+].[Na+].[Na+]` [Brilliant Black BN], in series [1], the “Solubility in Water” value was 30 mg/mL. For `CCCCC[C@H](O)/C=C/[C@H]1C(=O)C[C@H](O)[C@@H]1C/C=C\CCCC(=O)O` [PGD2, Prostaglandin D2], the negative-log EC50 (pEC50) in series [10] (MDC dye) is 10.74; in [10] (NY & H30602), 11.11. The entries for the “maximal response Fmax/Fb” value in series [10] (MDC dye) and in series [10] (NY & H30602) were 4.4 and 4.2, respectively.

For `CC1=CC(=C(c2ccc(N)c(C)c2)c2ccc(N)c(C)c2)C=CC1=N.Cl` [New Fuchsin], in series [1], the “Solubility in Water” value turned out to be 20 mg/mL.

The values above are taken from patent publication US7238213B2, “Cell-based assays employing voltage and calcium dyes” (priority 2001, dated 2007).
